For 13 compounds, Kd results are on record in patent US20250049970A1, “DLL3 TARGETING PEPTIDES AND CONSTRUCTS THEREOF” (MARIANA ONCOLOGY INC., priority 2023, published 2025).

*1 amine or outer side, *2 acyl side, *3 side chain or, on linkers, in order; H or OH if unused. Where a SMILES comes first, the peptide text is derived from it. Bridges are numbered along the chain shown (N, C = ends). [ ]: non-standard residue; d: D form. The star is where a group is joined. ξ: configuration not given here. X7 = O=C(O)CN1CCN(CC(=O)O)CCN(CC(=O)N[C@H]2CC[C@H](CC(=O)*)CC2)CCN(CC(=O)O)CC1; Ala(piperidin-4-yl) = O=C([C@H](CC1CCN([*:3])CC1)N[*:1])[*:2]; DOTA = O=C(O)CN1CCN(CC(=O)O)CCN(CC(=O)*)CCN(CC(=O)O)CC1; Trp(7-OMe) = COc1cccc2c(C[C@H](N)C(=O)O)c[nH]c12; Bip = N[C@@H](Cc1ccc(-c2ccccc2)cc1)C(=O)O; Phe(4-F) = N[C@@H](Cc1ccc(F)cc1)C(=O)O; 2Nal = N[C@@H](Cc1ccc2ccccc2c1)C(=O)O; NMetBuAla = CN[C@@H](CC(C)(C)C)C(=O)O; tBuAla = CC(C)(C)C[C@H](N)C(=O)O; NMeN = CN[C@@H](CC(N)=O)C(=O)O; Cba = N[C@@H](CC1CCC1)C(=O)O; Chg = N[C@H](C(=O)O)C1CCCCC1; CH2 = C([*:1])[*:2]; ξP = O=C(O)C1CCCN1 Bounds are passed on as bounds.

The target of the first test is T1, DLL3 (Homo sapiens, UniProt Q9NYJ7).
T1 sequence (Q9NYJ7 27-618): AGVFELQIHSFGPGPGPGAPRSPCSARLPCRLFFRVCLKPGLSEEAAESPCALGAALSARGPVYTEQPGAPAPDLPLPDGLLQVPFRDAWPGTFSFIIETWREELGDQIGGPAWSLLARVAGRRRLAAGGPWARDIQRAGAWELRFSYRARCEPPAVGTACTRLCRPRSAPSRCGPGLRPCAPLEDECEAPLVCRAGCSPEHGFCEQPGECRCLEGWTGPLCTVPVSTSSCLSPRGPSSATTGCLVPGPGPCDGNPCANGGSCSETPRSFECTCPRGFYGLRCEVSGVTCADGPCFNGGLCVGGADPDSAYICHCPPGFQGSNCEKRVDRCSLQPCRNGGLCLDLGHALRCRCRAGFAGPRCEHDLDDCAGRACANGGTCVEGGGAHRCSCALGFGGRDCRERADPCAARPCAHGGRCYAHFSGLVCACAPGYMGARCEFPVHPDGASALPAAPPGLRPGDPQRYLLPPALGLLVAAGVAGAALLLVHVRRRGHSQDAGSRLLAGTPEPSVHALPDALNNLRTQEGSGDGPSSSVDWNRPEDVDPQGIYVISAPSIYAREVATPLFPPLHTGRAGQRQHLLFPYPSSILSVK
In words: SPR KD, biotinylated human DLL3 on streptavidin chip (Table 8). Also on record: biotin (biotinylated). As to conditions: SPR KD, biotinylated human DLL3 on streptavidin sensor chip, 25° C., 1:1 binding model. From the text:
Biotinylated target ligand human DLL3 was immobilized on a streptavidin sensor chip. A reference surface was set up for nonspecific binding and refractive index changes. […] Sensorgram curves were fitted with 1:1 binding model, and affinity and kinetic parameters were obtained using Biacore Insight evaluation 4.0. software.
`CC[C@H](C)[C@H](NC(=O)[C@@H](NC(=O)[C@H](Cc1c[nH]c2ccccc12)NC(C)=O)[C@@H](C)O)C(=O)N[C@H]1CSSC[C@@H](C(=O)N[C@@H](Cc2c[nH]c3ccccc23)C(=O)N2CCC[C@H]2C(=O)N[C@H](CCCCNC(=O)CN2CCN(CC(=O)O)CCN(CC(=O)O)CCN(CC(=O)O)CC2)C(N)=O)NC(=O)[C@H](CC(=O)O)NC(=O)[C@H](CCCCNC(=O)CN2CCN(CC(=O)O)CCN(CC(=O)O)CCN(CC(=O)O)CC2)NC(=O)[C@H](Cc2ccc3ccccc3c2)NC(=O)[C@H](CC(N)=O)NC(=O)[C@H](CC(N)=O)NC1=O` [compound 253, Ac-W-T-I-C(3)-N-N-(2Nal)-Lys(DOTA)-D-C(3)-W-P-[D-Lys(DOTA)]-NH2] (Ac-WTICNN[2Nal]K(DOTA)DCWP[dK](DOTA)-NH2; disulfide 4-10) returned a Kd of less than 1 nM.

The same test, now with this note: biotinylated human DLL3 on streptavidin sensor chip, 25° C., 1:1 binding model; read-out: SPR KD.
For the compound `CC[C@H](C)[C@H](NC(=O)[C@@H](NC(=O)[C@H](Cc1ccc(F)cc1)NC(C)=O)[C@@H](C)O)C(=O)N[C@H]1CSSC[C@@H](C(=O)N[C@@H](Cc2c[nH]c3ccccc23)C(=O)N2CCC[C@H]2C(N)=O)NC(=O)[C@H](CC(=O)O)NC(=O)[C@H](Cc2cnc[nH]2)NC(=O)[C@H](Cc2c[nH]c3ccccc23)NC(=O)[C@H](CC(N)=O)NC(=O)[C@H](CC(N)=O)NC1=O` [compound 214, Ac-(4Fluoro-F)-T-I-C(3)-N-N-W-H-D-C(3)-W-P-CONH2] (Ac-[Phe(4-F)]TICNNWHDCWP-NH2; disulfide 4-10), the dissociation constant Kd was in the range of 100 to 300 nM. On the same count and under the same terms, the figure for `CC(=O)N[C@@H](Cc1c[nH]c2ccccc12)C(=O)N[C@H](C(=O)N(C)[C@@H](CC(C)(C)C)C(=O)N[C@H]1CSCSC[C@@H](C(=O)N[C@@H](Cc2c[nH]c3ccccc23)C(=O)N2CCC[C@H]2C(N)=O)NC(=O)[C@H](CC(=O)O)NC(=O)[C@H](CCCCNC(=O)CN2CCN(CC(=O)O)CCN(CC(=O)O)CCN(CC(=O)O)CC2)NC(=O)[C@H](Cc2ccc3ccccc3c2)NC(=O)[C@H](CC(N)=O)NC(=O)[C@H](CC2CCNCC2)NC1=O)[C@@H](C)O` [compound 153] (Ac-WT[NMetBuAla]C[Ala(piperidin-4-yl)]N[2Nal]K(DOTA)DCWP-NH2; linker 4-10 via CH2) is less than 1 nM; for `CC[C@H](C)[C@H](NC(=O)[C@@H](NC(=O)[C@H](Cc1c[nH]c2ccccc12)NC(=O)[C@H](CCSC)NC(C)=O)[C@@H](C)O)C(=O)N[C@H]1CSSC[C@@H](C(=O)N[C@@H](Cc2c[nH]c3ccccc23)C(=O)N2CCC[C@H]2C(N)=O)NC(=O)[C@H](CC(=O)O)NC(=O)[C@H](C)NC(=O)[C@H](Cc2c[nH]c3ccccc23)NC(=O)[C@H](CC(N)=O)NC(=O)[C@H](CC(N)=O)NC1=O` [compound 36, Ac-M-W-T-I-C(3)-N-N-W-(L-Ala)-D-C(3)-W-P-CONH2] (Ac-MWTICNNWADCWP-NH2; disulfide 5-11) it is 10 to 100 nM. Same read-out and setting: the figure for `CC(=O)N[C@@H](Cc1c[nH]c2ccccc12)C(=O)N[C@H](C(=O)N[C@H](C(=O)N[C@H]1CSCSC[C@@H](C(=O)N[C@@H](Cc2c[nH]c3ccccc23)C(=O)N2CCC[C@H]2C(N)=O)NC(=O)[C@H](C)NC(=O)[C@H](CCCCNC(=O)CN2CCN(CC(=O)O)CCN(CC(=O)O)CCN(CC(=O)O)CC2)NC(=O)[C@H](Cc2ccc3ccccc3c2)NC(=O)[C@H](CC(N)=O)NC(=O)[C@H](CC2CCNCC2)NC1=O)C1CCCCC1)[C@@H](C)O` [compound 416, Ac-W-T-(Chg)-C(1)-[3-(4-piperidinyl)-Ala]-N-(2Nal)-Lys(DOTA)-(Ala)-C(1)-W-P-CONH2] (Ac-WT[Chg]C[Ala(piperidin-4-yl)]N[2Nal]K(DOTA)ACWP-NH2; linker 4-10 via CH2) is less than 1 nM; for `CC[C@H](C)[C@H](NC(=O)[C@@H](NC(=O)[C@H](Cc1c[nH]c2ccccc12)NC(C)=O)[C@@H](C)O)C(=O)N[C@H]1CSSC[C@@H](C(=O)N[C@@H](Cc2c[nH]c3ccccc23)C(=O)N2CCC[C@H]2C(=O)O)NC(=O)[C@H](CC(=O)O)NC(=O)[C@H](Cc2c[nH]cn2)NC(=O)[C@H](Cc2c[nH]c3ccccc23)NC(=O)[C@H](CC(N)=O)N(C)C(=O)[C@H](CC(N)=O)NC1=O` [compound 385, Ac-W-T-I-C(3)-N-(NmeN)-W-H-D-C(3)-W-P-CONH2] (Ac-WTICN[NMeN]WHDCWP-OH; disulfide 4-10) it is 10 to 100 nM; for `CC(=O)N[C@@H](Cc1c[nH]c2ccccc12)C(=O)N[C@H](C(=O)N[C@@H](CC1CCC1)C(=O)N[C@H]1CSSC[C@@H](C(=O)N[C@@H](Cc2c[nH]c3ccccc23)C(=O)N2CCC[C@H]2C(N)=O)NC(=O)[C@H](CC(=O)O)NC(=O)[C@H](Cc2cnc[nH]2)NC(=O)[C@H](Cc2c[nH]c3ccccc23)NC(=O)[C@H](CC(N)=O)NC(=O)[C@H](CC(N)=O)NC1=O)[C@@H](C)O` [compound 341, Ac-W-T-(CBA)-C(3)-N-N-W-H-D-C(3)-W-P-CONH2] (Ac-WT[Cba]CNNWHDCWP-NH2; disulfide 4-10) it is 1 to 10 nM. Same read-out and setting: the figure for `CC(=O)N[C@@H](Cc1c[nH]c2ccccc12)C(=O)N[C@H](C(=O)N[C@@H](CC(C)(C)C)C(=O)N[C@H]1CSCSC[C@@H](C(=O)N[C@@H](Cc2c[nH]c3ccccc23)C(=O)N2CCC[C@H]2C(N)=O)NC(=O)[C@H](CC(=O)O)NC(=O)[C@H](CCCCNC(=O)C[C@H]2CC[C@H](NC(=O)CN3CCN(CC(=O)O)CCN(CC(=O)O)CCN(CC(=O)O)CC3)CC2)NC(=O)[C@H](Cc2ccc3ccccc3c2)NC(=O)[C@H](CC(N)=O)NC(=O)[C@H](CC2CCNCC2)NC1=O)[C@@H](C)O` [compound 434, Ac-W-T-(t-Bu-Ala)-C(3)-[3-(4-piperidinyl)-Ala]-N-(2Nal)-Lys(Chx-DOTA)-D-C(3)-W-P-NH2] (Ac-WT[tBuAla]C[Ala(piperidin-4-yl)]N[2Nal]K(X7)DCWP-NH2; linker 4-10 via CH2) is less than 1 nM; for `CC[C@H](C)[C@H](NC(=O)[C@@H](NC(=O)[C@H](Cc1c[nH]c2ccccc12)NC(=O)[C@H](CCSC)NC(C)=O)[C@@H](C)O)C(=O)N[C@H]1CSSC[C@@H](C(=O)N[C@@H](Cc2c[nH]c3ccccc23)C(=O)N2CCC[C@H]2C(N)=O)NC(=O)[C@H](CC(=O)O)NC(=O)[C@H](Cc2cnc[nH]2)NC(=O)[C@H](Cc2c[nH]c3ccccc23)NC(=O)[C@H](C)NC(=O)[C@H](CC(N)=O)NC1=O` [compound 38, Ac-M-W-T-I-C(3)-N-(L-Ala)-W-H-D-C(3)-W-P-CONH2] (Ac-MWTICNAWHDCWP-NH2; disulfide 5-11) it is 10 to 100 nM.

Turning to `CC[C@H](C)[C@H](NC(=O)[C@@H](NC(=O)[C@H](Cc1c[nH]c2ccccc12)NC(=O)[C@H](CCSC)NC(C)=O)[C@@H](C)O)C(=O)N[C@H]1CSSC[C@@H](C(=O)N[C@@H](Cc2c[nH]c3ccccc23)C(=O)N2CCC[C@H]2C(N)=O)NC(=O)[C@H](C)NC(=O)[C@H](Cc2cnc[nH]2)NC(=O)[C@H](Cc2c[nH]c3ccccc23)NC(=O)[C@H](CC(N)=O)NC(=O)[C@H](CC(N)=O)NC1=O` [compound 37, Ac-M-W-T-I-C(3)-N-N-W-H-(L-Ala)-C(3)-W-P-CONH2] (Ac-MWTICNNWHACWP-NH2; disulfide 5-11), the Kd lay in the range of 10 to 100 nM.

In the case of `CC[C@H](C)[C@H](NC(=O)[C@@H](NC(=O)[C@H](Cc1c[nH]c2ccccc12)NC(=O)[C@H](CCSC)NC(C)=O)[C@@H](C)O)C(=O)N[C@H]1CSSC[C@@H](C(=O)N[C@@H](Cc2c[nH]c3ccccc23)C(=O)N2CCC[C@H]2C(N)=O)NC(=O)[C@H](CC(=O)O)NC(=O)[C@@H](C)NC(=O)[C@H](Cc2c[nH]c3ccccc23)NC(=O)[C@H](CC(N)=O)NC(=O)[C@H](CC(N)=O)NC1=O` [compound 72] (Ac-MWTICNNW[dA]DCWP-NH2; disulfide 5-11), the Kd fell in the range of 100 to 300 nM.

With `CC[C@H](C)[C@H](NC(=O)[C@@H](NC(=O)[C@H](Cc1ccc(-c2ccccc2)cc1)NC(C)=O)[C@@H](C)O)C(=O)N[C@H]1CSSC[C@@H](C(=O)N[C@@H](Cc2c[nH]c3ccccc23)C(=O)N2CCC[C@H]2C(=O)O)NC(=O)[C@H](CC(=O)O)NC(=O)[C@H](Cc2c[nH]cn2)NC(=O)[C@H](Cc2c[nH]c3ccccc23)NC(=O)[C@H](CC(N)=O)NC(=O)[C@H](CC(N)=O)NC1=O` [compound 333, Ac-(BIP)-T-I-C(3)-N-N-W-H-D-C(3)-W-P-CONH2] (Ac-[Bip]TICNNWHDCWP-OH; disulfide 4-10), the Kd lay within 100 to 300 nM. The same measure, in the same setting: with `COc1cccc2c(C[C@H](NC(C)=O)C(=O)N[C@H](C(=O)N[C@H](C(=O)N[C@H]3CSCSC[C@@H](C(=O)N[C@@H](Cc4c[nH]c5ccccc45)C(=O)N4CCCC4C(N)=O)NC(=O)[C@H](CC(=O)O)NC(=O)[C@H](CCCCNC(=O)CN4CCN(CC(=O)O)CCN(CC(=O)O)CCN(CC(=O)O)CC4)NC(=O)[C@H](Cc4ccc5ccccc5c4)NC(=O)[C@H](CC(N)=O)NC(=O)[C@H](CC4CCNCC4)NC3=O)C3CCCCC3)[C@@H](C)O)c[nH]c12` (stereo partly drawn) [compound 430, Ac-(7MeO-Trp)-T-(Chg)-C(1)-[3-(4-piperidinyl)-Ala]-N-(2Nal)-Lys(DOTA)-D-C(1)-W-P-CONH2] (Ac-[Trp(7-OMe)]T[Chg]C[Ala(piperidin-4-yl)]N[2Nal]K(DOTA)DCW[ξP]-NH2; linker 4-10 via CH2) the figure was less than 1 nM.

For orientation: Kd means a measure of binding affinity in units of concentration.
